Source: ChEMBL document CHEMBL1201862, “PubChem BioAssay data set” (2004)
Where a name gives a salt, the structure may show the parent alone.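 Five concentrations, 48 hours, 96-well plates. At the GI50, growth is halved.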 The source made the active and inactive calls. Rule as the data show it: active = GI50 up to about 1.1 µM and inactive = higher.

Key:
Assay in all cases: NCI anticancer screen, dose series, 48 h
NCI-H23 = test system: NCI-H23
OVCAR-3 = test system: OVCAR-3
RXF 393 = test system: RXF 393
SN12C = test system: SN12C
HL-60 = test system: HL-60
UACC-257 = test system: UACC-257
TK-10 = test system: TK-10
MCF7 = test system: MCF7
LOX IMVI = test system: LOX IMVI
MDA-MB-435 = test system: MDA-MB-435
HCT-116 = test system: HCT-116
NCI-H226 = test system: NCI-H226
COLO 205 = test system: COLO 205
SF-295 = test system: SF-295
KM-20L2 = test system: KM-20L2
HOP-18 = test system: HOP-18
NCI/ADR-RES = test system: NCI/ADR-RES
DMS-273 = test system: DMS-273
OVCAR-4 = test system: OVCAR-4
OVCAR-8 = test system: OVCAR-8

| Structure (SMILES) | GI50 (NCI-H23) | GI50 (OVCAR-3) | GI50 (RXF 393) | GI50 (SN12C) | GI50 (HL-60) | GI50 (UACC-257) | GI50 (TK-10) | GI50 (MCF7) | GI50 (LOX IMVI) | GI50 (MDA-MB-435) | GI50 (HCT-116) | GI50 (NCI-H226) | GI50 (COLO 205) | GI50 (SF-295) | GI50 (KM-20L2) | GI50 (HOP-18) | GI50 (NCI/ADR-RES) | GI50 (DMS-273) | GI50 (OVCAR-4) | GI50 (OVCAR-8) |
| --- | --- | --- | --- | --- | --- | --- | --- | --- | --- | --- | --- | --- | --- | --- | --- | --- | --- | --- | --- | --- |
| COC(=O)C1=C(O)C(C(=O)OC)[C@@]2(O)[C@@H](C(=O)OC)[C@H](C)C[C@@H]1[C@@H]2C(=O)OC (stereo not given in full) | 37.5 µM (inactive) | 20 µM (inactive) | 15.4 µM (inactive) | 36.6 µM (inactive) | 25.9 µM (inactive) | 63.1 µM (inactive) | 57.9 µM (inactive) | 34.8 µM (inactive) | 32.5 µM (inactive) | 14.7 µM (inactive) | 35.5 µM (inactive) | 39.3 µM (inactive) |  |  |  |  |  |  |  |  |
| CCCCCCCCCCCCCCCCCCN(C)CC(COP(=O)([O-])OCC[N+](C)(C)C)OC (stereo not given) | 20.2 µM (inactive) | 28.6 µM (inactive) | 3.4 µM (inactive) | 27.4 µM (inactive) | 3.66 µM (inactive) | 35.3 µM (inactive) | 3.32 µM (inactive) | 29.4 µM (inactive) | 10 µM (inactive) | > 46.9 µM (inactive) | 15.5 µM (inactive) | 16.5 µM (inactive) | 2.91 µM (inactive) | 7.83 µM (inactive) | 1.91 µM (inactive) | 17.3 µM (inactive) | > 64 µM (inactive) | 1.95 µM (inactive) | 8.09 µM (inactive) | 26.6 µM (inactive) |
| CC(C)(C)N(Cc1ccoc1)C(=O)/C=C\[S+]([O-])c1ccccc1 (stereo not given) | 12.9 µM (inactive) | 13.3 µM (inactive) |  | 20.9 µM (inactive) | 12.7 µM (inactive) | 19.9 µM (inactive) | 44.2 µM (inactive) | 15.6 µM (inactive) | 5.45 µM (inactive) | 6.79 µM (inactive) | 16.6 µM (inactive) | 25.9 µM (inactive) | 22.3 µM (inactive) | 29.9 µM (inactive) |  |  | 21.2 µM (inactive) |  | 20 µM (inactive) | 14.4 µM (inactive) |
| CSc1ccccc1P(c1ccccc1SC)c1ccccc1SC | > 100 µM (inactive) |  |  | > 100 µM (inactive) |  |  | > 100 µM (inactive) | > 100 µM (inactive) | > 100 µM (inactive) | > 100 µM (inactive) | > 100 µM (inactive) | > 100 µM (inactive) |  | > 100 µM (inactive) |  |  | > 100 µM (inactive) |  | > 100 µM (inactive) | > 100 µM (inactive) |
| O=C1CC2CC3OC3[C@H]3c4cc5c(cc4C(=O)N1C23)OCO5 (stereo not given in full) |  | > 100 µM (inactive) |  | > 100 µM (inactive) | > 100 µM (inactive) |  | > 100 µM (inactive) |  | > 100 µM (inactive) |  | > 100 µM (inactive) | > 100 µM (inactive) | > 100 µM (inactive) | > 100 µM (inactive) | > 100 µM (inactive) |  |  | > 100 µM (inactive) | > 100 µM (inactive) | > 100 µM (inactive) |
| CCCCc1oc2ccccc2c1C(=O)c1cc(I)c(OCCN(CC)CC)c(I)c1 [AMIODARONE HYDROCHLORIDE] | 6.15 µM (inactive) | 6.22 µM (inactive) | 3.82 µM (inactive) | 7.73 µM (inactive) | 2.79 µM (inactive) | 5.21 µM (inactive) |  | 5.19 µM (inactive) | 3.82 µM (inactive) |  | 4.17 µM (inactive) | 4.5 µM (inactive) | 4.21 µM (inactive) | 4.63 µM (inactive) | 3.64 µM (inactive) | 0.791 µM (active) | 5.86 µM (inactive) | 4.16 µM (inactive) | 6.5 µM (inactive) |  |
